Assay results: PubChem BioAssay (NCI)
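Tested at 5 concentrations; 48 h exposure; 96-well plates; endpoints linearly interpolated, else capped at highest concentration. The concentration for 50% growth inhibition is given as GI50. TGI: total growth inhibition.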

What was measured:
Test in all cases: growth of human tumour cells (NCI), 48 h
HOP-92 NSCLC = test system: HOP-92 NSCLC
BT-549 breast = test system: BT-549 breast
MDA-MB-435 = test system: MDA-MB-435
SNB-19 CNS = test system: SNB-19 CNS
NCI-H522 lung = test system: NCI-H522 lung
SK-MEL-28 melanoma = test system: SK-MEL-28 melanoma
OVCAR-3 ovarian = test system: OVCAR-3 ovarian
NCI-H460 lung = test system: NCI-H460 lung
786-0 renal = test system: 786-0 renal
HOP-62 NSCLC = test system: HOP-62 NSCLC
OVCAR-8 ovarian = test system: OVCAR-8 ovarian
HCT-116 colon = test system: HCT-116 colon
TK-10 renal = test system: TK-10 renal
RXF 393 renal = test system: RXF 393 renal
MOLT-4 leukemia = test system: MOLT-4 leukemia
NCI-H23 lung = test system: NCI-H23 lung
CAKI-1 renal = test system: CAKI-1 renal
MDA-MB-231 breast = test system: MDA-MB-231 breast
UACC-62 melanoma = test system: UACC-62 melanoma
SK-MEL-5 melanoma = test system: SK-MEL-5 melanoma
IGROV1 ovarian = test system: IGROV1 ovarian
SF-539 CNS = test system: SF-539 CNS
SN12C renal = test system: SN12C renal
A549 NSCLC = test system: A549 NSCLC
SF-295 CNS = test system: SF-295 CNS
K-562 leukemia = test system: K-562 leukemia
SW-620 colon = test system: SW-620 colon
MCF7 breast = test system: MCF7 breast
SK-OV-3 ovarian = test system: SK-OV-3 ovarian
M14 melanoma = test system: M14 melanoma
HCT-15 colon = test system: HCT-15 colon
CCRF-CEM leukemia = test system: CCRF-CEM leukemia
UO-31 renal = test system: UO-31 renal
DU-145 prostate = test system: DU-145 prostate
PC-3 prostate = test system: PC-3 prostate
HCC-2998 colon = test system: HCC-2998 colon
U251 CNS = test system: U251 CNS
NCI-H226 lung = test system: NCI-H226 lung
SNB-75 CNS = test system: SNB-75 CNS
RPMI-8226 leukemia = test system: RPMI-8226 leukemia
UACC-257 melanoma = test system: UACC-257 melanoma
KM12 colon = test system: KM12 colon
HL-60(TB) leukemia = test system: HL-60(TB) leukemia
SR leukemia = test system: SR leukemia
COLO 205 colon = test system: COLO 205 colon
MALME-3M melanoma = test system: MALME-3M melanoma
LOX IMVI melanoma = test system: LOX IMVI melanoma
HT29 colon = test system: HT29 colon
OVCAR-4 ovarian = test system: OVCAR-4 ovarian
SF-268 CNS = test system: SF-268 CNS
A498 renal = test system: A498 renal
ACHN renal = test system: ACHN renal
SK-MEL-2 melanoma = test system: SK-MEL-2 melanoma
NCI/ADR-RES ovarian = test system: NCI/ADR-RES ovarian
OVCAR-5 ovarian = test system: OVCAR-5 ovarian
T-47D breast = test system: T-47D breast
EKVX NSCLC = test system: EKVX NSCLC
HS 578T breast = test system: HS 578T breast

O=C(Nc1ccc(Oc2cccc(Cl)c2)c(Cl)c1)c1cnccn1 showed a GI50 (HOP-92 NSCLC) of 673 nM, a TGI (HOP-92 NSCLC) of over 32800 nM and a GI50 (BT-549 breast) of 3310 nM. For the same compound, the TGI (BT-549 breast) was over 50000 nM, the GI50 (MDA-MB-435) was 109 nM and the TGI (MDA-MB-435) was 290 nM. The GI50 (SNB-19 CNS) was 338 nM, the TGI (SNB-19 CNS) was over 50000 nM and the GI50 (NCI-H522 lung) was 296 nM. The TGI (NCI-H522 lung) was 2550 nM, the GI50 (SK-MEL-28 melanoma) was 14100 nM and the TGI (SK-MEL-28 melanoma) was over 50000 nM. The GI50 (OVCAR-3 ovarian) was 198 nM, the TGI (OVCAR-3 ovarian) was 1160 nM and the GI50 (NCI-H460 lung) was 245 nM. The TGI (NCI-H460 lung) was over 50000 nM, the GI50 (786-0 renal) was 2160 nM and the TGI (786-0 renal) was over 50000 nM. The GI50 (HOP-62 NSCLC) was 368 nM, the TGI (HOP-62 NSCLC) was over 50000 nM and the GI50 (OVCAR-8 ovarian) was 1410 nM. For the same compound, the TGI (OVCAR-8 ovarian) was over 50000 nM, the GI50 (HCT-116 colon) was 210 nM and the TGI (HCT-116 colon) was over 50000 nM. For the same compound, the GI50 (TK-10 renal) was 3010 nM, the TGI (TK-10 renal) was over 50000 nM and the GI50 (RXF 393 renal) was 831 nM. For the same compound, the TGI (RXF 393 renal) was 3470 nM, the GI50 (MOLT-4 leukemia) was 371 nM and the TGI (MOLT-4 leukemia) was over 50000 nM. For the same compound, the GI50 (NCI-H23 lung) was 903 nM, the TGI (NCI-H23 lung) was over 50000 nM and the GI50 (CAKI-1 renal) was 844 nM. The TGI (CAKI-1 renal) was over 50000 nM, the GI50 (MDA-MB-231 breast) was 452 nM and the TGI (MDA-MB-231 breast) was over 40000 nM. The GI50 (UACC-62 melanoma) was 345 nM, the TGI (UACC-62 melanoma) was over 50000 nM and the GI50 (SK-MEL-5 melanoma) was 280 nM. It also gave a TGI (SK-MEL-5 melanoma) of over 50000 nM, a GI50 (IGROV1 ovarian) of 363 nM and a TGI (IGROV1 ovarian) of over 50000 nM. It also gave a GI50 (SF-539 CNS) of 306 nM, a TGI (SF-539 CNS) of 1720 nM and a GI50 (SN12C renal) of 2560 nM. The TGI (SN12C renal) was over 50000 nM, the GI50 (A549 NSCLC) was 312 nM and the TGI (A549 NSCLC) was over 50000 nM. The GI50 (SF-295 CNS) was 480 nM, the TGI (SF-295 CNS) was over 25100 nM and the GI50 (K-562 leukemia) was 162 nM. It also gave a TGI (K-562 leukemia) of over 50000 nM, a GI50 (SW-620 colon) of 216 nM and a TGI (SW-620 colon) of over 50000 nM. For the same compound, the GI50 (MCF7 breast) was 183 nM, the TGI (MCF7 breast) was over 50000 nM and the GI50 (SK-OV-3 ovarian) was 11500 nM. For the same compound, the TGI (SK-OV-3 ovarian) was over 50000 nM, the GI50 (M14 melanoma) was 225 nM and the TGI (M14 melanoma) was over 50000 nM. It also gave a GI50 (HCT-15 colon) of 171 nM, a TGI (HCT-15 colon) of over 50000 nM and a GI50 (CCRF-CEM leukemia) of 367 nM. It also gave a TGI (CCRF-CEM leukemia) of over 50000 nM, a GI50 (UO-31 renal) of 1910 nM and a TGI (UO-31 renal) of over 50000 nM. It also gave a GI50 (DU-145 prostate) of 839 nM, a TGI (DU-145 prostate) of over 50000 nM and a GI50 (PC-3 prostate) of 1060 nM. It also gave a TGI (PC-3 prostate) of over 50000 nM, a GI50 (HCC-2998 colon) of 5310 nM and a TGI (HCC-2998 colon) of over 36000 nM. For the same compound, the GI50 (U251 CNS) was 245 nM, the TGI (U251 CNS) was over 22900 nM and the GI50 (NCI-H226 lung) was 1730 nM. The TGI (NCI-H226 lung) was over 29800 nM, the GI50 (SNB-75 CNS) was 258 nM and the TGI (SNB-75 CNS) was 2330 nM. For the same compound, the GI50 (RPMI-8226 leukemia) was 323 nM, the TGI (RPMI-8226 leukemia) was over 50000 nM and the GI50 (UACC-257 melanoma) was over 20000 nM. It also gave a TGI (UACC-257 melanoma) of over 50000 nM, a GI50 (KM12 colon) of 180 nM and a TGI (KM12 colon) of over 50000 nM. The GI50 (HL-60(TB) leukemia) was 556 nM, the TGI (HL-60(TB) leukemia) was 8950 nM and the GI50 (SR leukemia) was 145 nM. The TGI (SR leukemia) was over 50000 nM, the GI50 (COLO 205 colon) was 208 nM and the TGI (COLO 205 colon) was 16200 nM. For the same compound, the GI50 (MALME-3M melanoma) was 1920 nM, the TGI (MALME-3M melanoma) was over 50000 nM and the GI50 (LOX IMVI melanoma) was 275 nM. The TGI (LOX IMVI melanoma) was over 50000 nM, the GI50 (HT29 colon) was 168 nM and the TGI (HT29 colon) was over 20300 nM. It also gave a TGI (OVCAR-4 ovarian) of over 50000 nM, a GI50 (SF-268 CNS) of 1140 nM and a TGI (SF-268 CNS) of over 50000 nM. It also gave a GI50 (A498 renal) of 5850 nM, a TGI (A498 renal) of 28200 nM and a GI50 (ACHN renal) of 3630 nM. The TGI (ACHN renal) was over 50000 nM, the GI50 (SK-MEL-2 melanoma) was 352 nM and the TGI (SK-MEL-2 melanoma) was over 50000 nM. For the same compound, the GI50 (NCI/ADR-RES ovarian) was 265 nM, the TGI (NCI/ADR-RES ovarian) was over 11800 nM and the GI50 (OVCAR-5 ovarian) was 1600 nM. The TGI (OVCAR-5 ovarian) was over 50000 nM, the GI50 (T-47D breast) was 460 nM and the TGI (T-47D breast) was over 50000 nM. It also gave a GI50 (EKVX NSCLC) of 771 nM, a TGI (EKVX NSCLC) of over 50000 nM and a GI50 (HS 578T breast) of 214 nM. For the same compound, the TGI (HS 578T breast) was over 50000 nM.
